Assay results from patent US20140057887A1, “NOVEL PLATINUM-CARBENE COMPLEXES AND USE THEREOF AS MEDICAMENTS” (priority 2010, published 2014).
Entries after “also recorded” stand apart in the source; their conditions may differ. Where two headings read alike, the source gives them in different places.

Experiments:
[1] = test system: OVCAR8; assay: Cytotoxicity in vitro, IC50 on OVCAR8; type: cell-based; conditions: ovarian adenocarcinoma
Experimental: (§1) (5% CO2). […] All the treatments are carried out in triplicate.
(§2) SK-OV-3 and OVCAR8: ovarian adenocarcinomas
(§3) The cytotoxicity of a compound against a cancer cell line is evaluated.

[2] = test system: Hela; assay: MTS cytotoxicity assay, IC50 on Hela cell line; conditions: for IC50: read-out: IC50 {Hela} (in μM), MTS assay, 48 h incubation
Experimental: (§7) MTS [3-(4,5-dimethylthiazol-2-yl)-5-(3-carboxymethoxyphenyl)-2-(4-sulphophenyl)-2H-tetrazolium] is reduced to formazan (coloured compound, the optical density of which is measured at 492 nm) by the mitochondrial dehydrogenases. Only the live cells will reduce MTS to formazan, which will be released in the medium. The optical density measured at 492 nm is directly proportional to the number of live cells.
(§8) MTS [3-(4,5-dimethylthiazol-2-yl)-5-(3-carboxymethoxyphenyl)-2-(4-sulphophenyl)-2H-tetrazolium], soluble in the culture medium, can be reduced to formazan (coloured product) by the mitochondrial dehydrogenases of the live cells. The measured optical density (492 nm) is therefore directly proportional to the quantity of live cells. The cells are deposited in a 96-well plate at 1.10^4 cells per well in 100 μL of RPMI 5% FCS. The cells are then treated with the various molecules at the desired concentrations and then incubated for 48 h at 37° C. (5% CO2). After treatment, 20 μL of MTS is added to each well. After incubation for two hours at 37° C. the optical density is measured at an absorbance of 492 nm using the plate reader Wallac Victor 2 Multi-label Counter (Technical University of Denmark, Kongens Lyngby, Denmark). All the treatments are carried out in triplicate. The blank, determined by incubating RPMI with MTS, is deducted from the values of the wells containing cells. The percentage of live cells is calculated from the following formula: (OD experiment*100)/OD control.
(§9) The cytotoxicity of the compounds according to the invention is measured in vitro on the Hela and U87 cell lines.
(§10) The cytotoxicity of a compound with respect to a cancer cell line is evaluated from the value of the inhibitory concentration IC50 of said compound with respect to said cell line.
(§11) The MTS assay gives an optical density signal that is proportional to the quantity of live cells (in a linear range). These values, as well as the untreated controls, are used for calculating the percentage of live cells at each concentration. […] The IC50 values are calculated on the basis of 4-parameter fitting using the Sigma Plot software.

[3] = test system: EPC; assay: Percentage of cellular inhibition at 10 μM, EPC; conditions: for Inhibition (in %) {EPC}: final concentration 10 μM, endothelial progenitor cells
Experimental: as §1
(§4) The endothelial progenitor cells (EPC) play an important role in angiogenesis and vasculogenesis; these last-mentioned contribute to tumour growth, are mobilized by cytokines secreted at cancer sites and contribute to postnatal vasculogenesis and to pathological neovascularization.
(§5) EPC: endothelial progenitor cells

[4] = test system: SK-OV3; assay: Cytotoxicity in vitro, IC50 on SK-OV3; type: cell-based; conditions: ovarian adenocarcinoma
Experimental: as §1, §2, §3

[5] = test system: MRC5; assay: Percentage of cellular inhibition at 10 μM, MRC5; type: cell-based, human; conditions: for Inhibition (in %) {MRC5}: final concentration 10 μM, human fetal lung cells (non-cancerous)
Experimental: as §1
MRCS: human fetal lung cells

[6] = test system: EPC; assay: Cytotoxicity in vitro, IC50 on EPC (endothelial progenitor cells); type: cell-based
Experimental: as §1, §5, §4, §3

[7] = test system: OVCAR8; assay: Percentage of cellular inhibition at 10 μM, OVCAR8; type: cell-based; conditions: for Inhibition (in %) {OVCAR8}: final concentration 10 μM, ovarian adenocarcinoma
Experimental: as §1, §2

[8] = test system: U87; assay: MTS cytotoxicity assay, IC50 on U87 cell line; conditions: for IC50: read-out: IC50 {U87} (in μM), MTS assay, 48 h incubation
Experimental: as §7, §8, §9
U87: stage IV glioblastoma, expresses αVβ5 and can be used as a xenograft
as §10, §11

[9] = test system: KB; assay: Percentage of cellular inhibition at 10 μM, KB; type: cell-based; conditions: final concentration 10 μM; buccal carcinoma
Experimental: as §1

[10] = test system: PC3; assay: Cytotoxicity in vitro, IC50 on PC3; type: cell-based
Experimental: as §1
(§6) PC3: prostatic adenocarcinoma
as §3

[11] = test system: Vero; assay: Percentage of cellular inhibition at 10 μM, Vero; type: cell-based, monkey; conditions: for Inhibition (in %) {Vero}: final concentration 10 μM, monkey kidney epithelial cells (non-cancerous); for cytotoxicity on non-cancerous cells Vero (in words): 10 μM
Experimental: as §1
Vero: monkey kidney epithelial cells

[12] = test system: HCT116; assay: Percentage of cellular inhibition at 10 μM, HCT116; type: cell-based, human; conditions: final concentration 10 μM; colon carcinoma
Experimental: as §1

[13] = test system: HCT116; assay: Cytotoxicity in vitro, IC50 on HCT116; type: cell-based, human
Experimental: as §1, §3

[14] = test system: MCF7; assay: Percentage of cellular inhibition at 10 μM, MCF7; type: cell-based; conditions: final concentration 10 μM; breast carcinoma
Experimental: as §1

[15] = test system: MCF7; assay: Cytotoxicity in vitro, IC50 on MCF7; type: cell-based; conditions: breast carcinoma
Experimental: as §1, §3

[16] = test system: PC3; assay: Percentage of cellular inhibition at 10 μM, PC3; type: cell-based; conditions: final concentration 10 μM; prostatic adenocarcinoma
Experimental: as §1, §6

[17] = test system: HL60; assay: Percentage of cellular inhibition at 10 μM, HL60; type: cell-based; conditions: final concentration 10 μM; leukaemia
Experimental: as §1

[18] = test system: SK-OV3; assay: Percentage of cellular inhibition at 10 μM, SK-OV3; type: cell-based; conditions: for Inhibition (in %) {SK-OV3}: final concentration 10 μM, ovarian adenocarcinoma
Experimental: as §1, §2

[19] = test system: cell lines KB, SK-OV3, OVCAR-8, HL60, MCF7, HCT116, PC3, MRCS, Vero and EPC; assay: Cellular inhibition, overall statements on the panel of cell lines; type: cell-based; conditions: 10 μM, panel of cancer and non-cancerous cell lines
Text: The results obtained are presented below.

[20] = Measurement of water-solubility; type: physicochemical
[21] = biological target: integrin αvβ3 (Homo sapiens, UniProt P05106+P06756); conditions: background statement; cited from earlier work
[22] = measured by first dissolving cisplatin in water

Sequence of integrin αvβ3 (P06756 31-889 limits assumed): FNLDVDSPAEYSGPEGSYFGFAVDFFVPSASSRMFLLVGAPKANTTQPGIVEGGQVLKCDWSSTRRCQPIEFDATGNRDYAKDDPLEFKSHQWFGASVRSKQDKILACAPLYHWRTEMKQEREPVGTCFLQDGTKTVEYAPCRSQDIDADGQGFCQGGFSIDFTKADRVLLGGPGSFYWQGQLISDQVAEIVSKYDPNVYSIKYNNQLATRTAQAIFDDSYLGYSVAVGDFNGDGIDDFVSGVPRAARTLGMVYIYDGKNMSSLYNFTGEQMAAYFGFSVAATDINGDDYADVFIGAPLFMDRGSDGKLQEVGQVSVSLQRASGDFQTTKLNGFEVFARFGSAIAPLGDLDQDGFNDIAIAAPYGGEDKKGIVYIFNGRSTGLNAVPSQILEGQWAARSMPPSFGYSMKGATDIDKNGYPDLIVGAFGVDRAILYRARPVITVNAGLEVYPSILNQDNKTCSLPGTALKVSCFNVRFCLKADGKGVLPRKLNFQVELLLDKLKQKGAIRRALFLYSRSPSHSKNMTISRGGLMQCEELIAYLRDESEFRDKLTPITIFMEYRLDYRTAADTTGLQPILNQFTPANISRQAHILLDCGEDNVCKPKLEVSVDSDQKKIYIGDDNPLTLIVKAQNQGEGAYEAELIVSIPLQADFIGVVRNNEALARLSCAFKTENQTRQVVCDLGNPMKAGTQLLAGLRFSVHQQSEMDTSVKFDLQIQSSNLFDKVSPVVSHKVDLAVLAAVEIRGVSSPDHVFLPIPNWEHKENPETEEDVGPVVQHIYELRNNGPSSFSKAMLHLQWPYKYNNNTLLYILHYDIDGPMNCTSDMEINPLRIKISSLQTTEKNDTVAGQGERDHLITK
Sequence of integrin αvβ3 (P06756 891-1048 partner limits assumed): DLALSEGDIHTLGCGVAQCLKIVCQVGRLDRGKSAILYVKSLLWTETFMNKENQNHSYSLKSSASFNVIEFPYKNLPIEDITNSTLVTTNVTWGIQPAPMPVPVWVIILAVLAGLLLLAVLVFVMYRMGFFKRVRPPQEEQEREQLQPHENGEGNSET
Sequence of integrin αvβ3 (P05106 27-788): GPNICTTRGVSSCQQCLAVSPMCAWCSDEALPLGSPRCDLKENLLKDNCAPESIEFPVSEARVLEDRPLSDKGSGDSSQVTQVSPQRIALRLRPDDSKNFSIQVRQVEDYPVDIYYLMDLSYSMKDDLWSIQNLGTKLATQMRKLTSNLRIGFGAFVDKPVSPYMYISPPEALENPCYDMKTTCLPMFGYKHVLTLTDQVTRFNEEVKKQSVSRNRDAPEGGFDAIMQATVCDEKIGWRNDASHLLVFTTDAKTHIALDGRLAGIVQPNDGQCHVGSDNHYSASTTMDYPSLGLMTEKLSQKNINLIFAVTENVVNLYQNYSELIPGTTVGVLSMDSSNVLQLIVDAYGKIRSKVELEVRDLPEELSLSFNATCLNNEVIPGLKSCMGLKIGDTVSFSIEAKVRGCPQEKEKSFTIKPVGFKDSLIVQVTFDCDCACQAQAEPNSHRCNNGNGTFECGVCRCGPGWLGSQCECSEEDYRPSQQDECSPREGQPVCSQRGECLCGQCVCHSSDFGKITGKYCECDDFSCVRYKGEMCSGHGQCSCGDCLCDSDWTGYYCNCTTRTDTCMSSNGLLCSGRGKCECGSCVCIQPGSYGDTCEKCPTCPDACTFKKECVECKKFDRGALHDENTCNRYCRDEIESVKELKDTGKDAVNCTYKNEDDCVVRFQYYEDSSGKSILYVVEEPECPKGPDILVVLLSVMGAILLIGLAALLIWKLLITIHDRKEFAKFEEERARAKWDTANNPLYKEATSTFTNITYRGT

Molecule	Inhibition (in %) {EPC} [3] [%]	IC50 [4] [µM]	Inhibition (in %) {MRC5} [5] [%]	Inhibition (in %) {OVCAR8} [7] [%]	Inhibition (in %) {KB} [9] [%]	Inhibition (in %) {Vero} [11] [%]	Inhibition (in %) {HCT116} [12] [%]	Inhibition (in %) {MCF7} [14] [%]	IC50 [15] [µM]	Inhibition (in %) {PC3} [16] [%]	Inhibition (in %) {HL60} [17] [%]	Inhibition (in %) {SK-OV3} [18] [%]	inhibition of cell growth, overall statement on the cell panel (in words) [19]	anti-angiogenic activity by inhibition of growth of EPC cells (in words) ([3]; 10 μM)	other results
N.N.[Cl][Pt][Cl] [Cisplatin, cisplatin, reference compound]	−1.2	> 10	−20.4	−1.8	3.6	−4.0	2.7	−4.1	> 10	−6.2	−10.6	4.4	–	–	IC50 [1]: > 10 µM; IC50 [2]: 26.2 µM; IC50 [6]: > 10 µM; IC50 [8]: 8 µM; IC50 [10, 22]: 5.1 µM; IC50 [13, 22]: 5.5 µM
trans-diiodo(N-poly(ethylenamine))[1-methyl-3-benzyl-imidazol-2-ylidene]platinum(II) [Example 34]	95.8	1.2	26.4	79.1	64.0	19.5	90.1	98.2	1.7	64.2	97.0	99.1	inhibitor of the growth of cancer cells and an anti-angiogenic agent; also recorded: cytotoxic activity on all of the cancer cells tested	anti-angiogenic activity	cytotoxic activity compared with cisplatin, HeLa cell line (in words) ([2]; comparison with cisplatin): almost identical to that of cisplatin; IC50 [2]: 28.4 µM; cytotoxic activity compared with cisplatin, U87 cell line (in words) ([8]; comparison with cisplatin): almost identical to that of cisplatin; IC50 [8]: 8.3 µM; IC50 ([10]; prostatic adenocarcinoma): 2.8 µM; cytotoxicity on non-cancerous cells Vero (in words) [11]: low cytotoxicity; IC50 ([13]; colon carcinoma): 1 µM; Water-solubility [20]: 6700 µg/mL
COCCOCCOCCOCCn1ccn(C)[c]1=[Pt]([I])[I].NC1CCCCC1 [Example 13, trans-diiodo(N-cyclohexylamine)[1-methyl-3-(2,5,8,11-tetraoxatridecan-13-yl)-imidazol-2-ylidene]platinum(II)]	96.1	–	–	92.4	100.4	–	94.0	94.2	–	83.8	87.3	90.9	improves the activity of inhibition of cell growth	anti-angiogenic activity	–
trans-diiodo(N-[(methoxy)polyethylene glycol amine])[1-methyl-3-benzyl-imidazol-2-ylidene]platinum(II) [Example 22]	93.7	–	–	90.0	77.8	–	94.3	91.7	–	78.5	87.4	90.3	–	anti-angiogenic activity	Water-solubility ([20]; ambient temperature and pressure): 11100 µg/mL
cyclo(RGDfK) [cyclo(RGDfK) peptide]	–	–	–	–	–	–	–	–	–	–	–	–	–	–	affinity for integrin αvβ3 (in words) [21]: high affinity
CN1C=CN(Cc2ccccc2)[CH]1[Pt]([I])([I])[NH]CCN (stereo not drawn) [Example 33, trans-diiodo(N-ethylenediamine)[1-methyl-3-benzyl-imidazol-2-ylidene]platinum(II)]	–	–	–	–	–	–	–	–	–	–	–	–	–	–	solubility ([20]; water, thermodynamic from solid, ambient temperature and pressure): 3300 µg/mL
COCCOCCOCCOCCn1ccn(CCOCCOCCOCCOC)[c]1=[Pt]([I])[I].NC1CCCCC1 [Example 14, trans-diiodo(N-cyclohexylamine)[1,3-di(2,5,8,11-tetraoxatridecan-13-yl)-imidazol-2-ylidene]platinum(II)]	27.2	6.2	24.5	78.4	26.6	17.0	31.9	18.6	–	5.7	31.2	62.8	selective inhibitor of the growth of cancer cells	–	IC50 [1]: 3.9 µM; cytotoxicity on non-cancerous cells EPC (in words) ([3]; 10 μM): low cytotoxicity; cytotoxicity on non-cancerous cells MRCS (in words) ([5]; 10 μM): low cytotoxicity; selectivity of inhibition of cell growth, OVCAR8 (in words) ([7]; 10 μM): selective with respect to the ovarian cancer cells SKOV-3 and OVCAR8; cytotoxicity on non-cancerous cells Vero (in words) [11]: low cytotoxicity; selectivity of inhibition of cell growth, SKOV-3 (in words) ([18]; 10 μM): selective with respect to the ovarian cancer cells SKOV-3 and OVCAR8
CNC(=O)NCC(Cc1ccccc1)NC(=O)NCC(Cc1ccccc1)NC(=O)NCC(Cc1ccccc1)NC(=O)NCC(N)Cc1ccccc1.Cn1ccn(Cc2ccccc2)[c]1=[Pt]([I])[I] [Example 39, trans-diiodo(N-[1-((2R,7R,12R,17R)-17-amino-2,7,12-tribenzyl-4,9,14-trioxo-18-phenyl-3,5,8,10,13,15-hexaazaoctadecyl)-3-methylurea])[1-methyl-3-benzyl-imidazol-2-ylidene]platinum(II)]	99.3	0.6	–	92.1	101.2	–	96.1	95.9	0.6	90.9	91.0	95.2	–	anti-angiogenic activity	IC50 [6]: 1.9 µM; IC50 ([10]; prostatic adenocarcinoma): 1.4 µM; IC50 ([13]; colon carcinoma): 0.4 µM
